One experiment relates to B16-F10 cells. Nature of the experiment: In vitro effect of p53 gene and 9NC on B16-F10 cell proliferation (hematocytometer cell count). It is filed as cell-based. The conditions noted are these: drug >0.5 mg/ml; data not shown. As for the experimental part:
B16-F10 cells grown in tissue culture plates (20,000 cells/well in a 48 well plate; […] cells/well in a 12 well plate) are transfected with PEI-DNA complexes (1 μg/ml; p53 or control empty plasmid, Neo) for 24 hours. […] The proliferation of B16-F10 cells 24 hours later was evaluated using the hematocytometer. To count the cells, the cell layer was washed with PBS and then trypsinized with 0.25% trypsin. The Alamar Blue Assay (Trek Diagnostic Systems, Inc) was also performed to test the viability of the cells (data not shown).
Control groups included cells treated with the genes (p53 and Neobam) alone, or with the drug (9-nitrocamptothecin) alone, or with Neobam and 9-nitrocamptothecin in combination. […] The p53 expression levels in parental and p53 treated B16-F10 cells have been reported previously (8).

Experiment [1] relates to B16-F10 lung metastases. In words: In vivo effect of aerosol PEI-p53 and 9NC-DLPC on established B16-F10 lung metastases. The conditions noted are these: lower dose, agent alone. Also on record: species or system C57BL/6 mice.
Procedure: C57BL/6 mice (7-8 weeks old, Harlan Sprague Dawley, Houston, Tex.) were injected via the tail vein with 25,000 B16-F10 cells on day 0. […] Animals in the single agent therapy group were administered p53 one time weekly or 9-nitrocamptothecin twice weekly.
The dosage for treatment was 2 mg plasmid/10 ml of aerosolized solution at a PEI:DNA (N:P) ratio of 10:1 for DNA, and 5 mg 9-nitrocamptothecin at a concentration of 0.5 mg/ml at a 9 nitrocamptothecin:dilauroylphosphatidylcholine weight ratio of 1:50. Aerosol delivery of drugs and genes was performed using 5% CO2-in-air for increased pulmonary deposition. On day 25-post tumor inoculation, the mice were sacrificed, lungs were fixed and the tumor index was calculated.
Tumor index was calculated by the formula: Tumor index=lung weights×average grade for the group. […] The growth of tumor contiguous to the lung was considered as a part of the lung for weighing the lungs. Values are mean+SD (n=10 mice per group).
Experiment [2] has as its system B16-F10 lung metastases. In words: Survival of B16-F10 challenged mice with PEI-p53/9NC-DLPC aerosol treatment. It is filed as in vivo, C57BL/6 mice. The conditions noted are these: aerosol treatment from day 11 for two weeks; n=10 mice per group.
Procedure: C57BL/6 mice (n=10 mice per group) were injected via the tail vein with 25,000 B16-F10 cells on day 0 and the tumor was allowed to establish until day 10. The mice were then left untreated; or exposed to PEI-p53 aerosol complexes, to 9-nitrocamptothecin alone or to a sequential combination of p53 and 9-nitrocamptothecin, or 9-nitrocamptothecin and Neobam combination starting day 11 after tumor cell injection. Neobam was used as a negative control. The dosage was twice a week for drug or gene alone; and in combination once a week for gene and, twice a week for drug therapy. The mice were treated for two weeks, and then monitored over time for their survival.

With `CC[C@@]1(O)C(=O)OCc2c1cc1n(c2=O)Cc2cc3c([N+](=O)[O-])cccc3nc2-1` [9-nitrocamptothecin], the “inhibition of B16-F10 as single agent, increased drug concentration” value in the experiment with B16-F10 cells is given as “very potent inhibition”. In the experiment with B16-F10 lung metastases [1], the “suppression of metastatic growth or increase of survival by single agent” value is on record as “neither the p53 nor the 9-nitrocamptothecin alone is potent enough”. This compound also displayed a mean survival time in the experiment with B16-F10 lung metastases [2] of 29 ± 3 days.

The values are drawn from patent publication US20040028616A1, “Inhibition of lung metastases by aerosol delivery of p53 gene and anti-cancer compounds” (priority 2002, published 2004).
